How the values were obtained:
GP88 mRNA = assay: regulation of GP88 mRNA expression in MDA MB-453 cells; format: cell-based, human
GP88 = assay: regulation of GP88 expression in 1246, 1246-3A and PC cells, Northern and Western blot; format: cell-based, mouse; settings: 1246 cells
Experimental: Fifteen or twenty micrograms of total RNA per sample were subjected to electrophoresis on a denaturing 1.2% agarose gel containing 0.22 M formaldehyde in 1×MOPS (10×MOPS: 0.2 M MOPS, 50 mM NaOAc 10 mM EDTA). RNA was blotted on nitrocellulose membrane (MSI Inc., Westboro, Mass.) by overnight capillary transfer in 10×SSC (20×SSC=3 M NaCl, 0.3 M Na Citrate pH 7.0). […] Results were quantitated by densitometric scanning. Ribosomal protein L32 mRNA was detected as internal standard for normalizing RNA loading.
Amounts of cell lysate and culture medium to be analyzed were normalized by cell number of 18×10^5 and 3×10^5 respectively. […] Proteins were electro transferred to immobilon membranes and GP88 detected using anti K19T antibody conjugated to horseradish peroxidase and detected by enhanced chemiluminescence (ECL).
GP88 expression was examined in 1246 cells in different culture conditions such as defined medium and serum containing medium. It was shown that the level of expression of GP88 mRNA (measured by Northern blot analysis) and protein (measured by Western blot analysis) in 1246 and in 1246-3A cells is inhibited when the cells are treated with 2% fetal bovine serum indicating the presence of circulating inhibitors of GP88 expression in fetal bovine serum (FIG. 1C). […]

Substance	GP88 mRNA expression (GP88 mRNA)	GP88 mRNA expression (GP88)
insulin: hormone	stimulated	
EGF: epidermal growth factor		stimulated
